Values quoted from earlier work in US20020102237A1, “Compositions and methods for hepatitis treatment” (priority 2000, published 2002).

Tested on: hepatitis C infection

Substance | patients responding with normalization of alanine aminotransferase (ALT) (hepatitis C infection, 3 million units subcutaneously three times weekly for six months) | relapse of responders upon discontinuation of therapy (hepatitis C infection, after standard six-month therapy) | response rate (long term efficacy) (chronic hepatitis C, interferon with or without Ribavirin)
alpha-interferon | approximately 50% | half of those responding relapse | –
interferon | – | – | about 25%
